“Also recorded” adds a separate entry of the source.
Legend:
Format in all cases: cell-based, Human
[1] = system: COL1 protein (collagen, COL1A1); test: Protein expression of COL1A1 in hADSC; settings: hADSC at 1×10^5 cell/ml, 2.5 μg/ml, 96 or 168 hours
Protocol: (§1) 20 ml of 1.0×10^5 or 0.2×10^5 cells/ml hADSCs in DMEM medium (10% fetal bovine serum, 1% L-glutamine, 1% non-essential amino acid (NEAA), and 1% sodium pyruvate) was placed on a 15-cm dish, mixed with 2.5 μg/ml butylidenephthalide, and then incubated at 37° C. in a 5% CO2 incubator for 96 hours. After the medium was removed and replaced with fresh medium, hADSCs was cultured under the same condition as described above until 168 hours.

SCX = test: mRNA expression of tendon healing factors in hADSC: SCX; settings: hADSC at 1×10^5 cell/ml, 2.5 μg/ml, 96 or 168 hours
Protocol: as §1

COL1A1 = test: mRNA expression of tendon healing factors in hADSC: COL1A1; settings: hADSC at 1×10^5 cell/ml, 2.5 μg/ml, 96 or 168 hours
Protocol: as §1

hADSCs = test: Cell activity (MTT cell viability) of hADSC with butylidenephthalide; settings: 24 and 48 hours
Protocol: hADSCs were seeded on a 96-well plate at a density of 3×10^3 cell/100 μl, and the 96-well plate was incubated at 37° C. in a humidified 5% CO2 atmosphere. After 16 hours, butylidenephthalide of various concentrations was added to the 96-well plate and then incubated at 37° C. in a 5% CO2 incubator. After 24 and 48 hours, the cell viability was determined. In cell viability assay, 100 μl of 10% MTT reagent was added to each well and then incubated in an incubator for 2 hours. 150 μl DMSO was added and mixed for 15 minutes. The absorbance (OD) of the aqueous solution was determined at 570 nm. According to FIG. 1, butylidenephthalide would not affect the cell activity if its concentration was blow 5 μg/ml. Therefore, 2.5 μg/ml of butylidenephthalide was selected to be used in the following experiments.

In the case of `CCCC=C1OC(=O)c2ccccc21` [butylidenephthalide, Butylidenephthalide], the COL1A1 protein expression [1] is reported as “increased, significantly; also recorded: significant increase”, the “SCX mRNA expression” value (SCX) is reported as “increased, significantly; also recorded: significant increase” and the “COL1A1 mRNA expression” value (COL1A1) is reported as “increased, significantly; also recorded: significant increase”. For the same compound, the “concentration that would not affect the cell activity (MTT)” value (hADSCs) was less than 5000 ng/mL.
